Where a name gives a salt, the structure may show the parent alone. Read-outs that look alike come from different tables or passages of the source. Ends that are not written are not given here.
Experiments:
[1] = target: T1, P2X7 receptor (Homo sapiens, UniProt Q99572); conditions: cited from earlier work
T1 sequence (Q99572 1-595): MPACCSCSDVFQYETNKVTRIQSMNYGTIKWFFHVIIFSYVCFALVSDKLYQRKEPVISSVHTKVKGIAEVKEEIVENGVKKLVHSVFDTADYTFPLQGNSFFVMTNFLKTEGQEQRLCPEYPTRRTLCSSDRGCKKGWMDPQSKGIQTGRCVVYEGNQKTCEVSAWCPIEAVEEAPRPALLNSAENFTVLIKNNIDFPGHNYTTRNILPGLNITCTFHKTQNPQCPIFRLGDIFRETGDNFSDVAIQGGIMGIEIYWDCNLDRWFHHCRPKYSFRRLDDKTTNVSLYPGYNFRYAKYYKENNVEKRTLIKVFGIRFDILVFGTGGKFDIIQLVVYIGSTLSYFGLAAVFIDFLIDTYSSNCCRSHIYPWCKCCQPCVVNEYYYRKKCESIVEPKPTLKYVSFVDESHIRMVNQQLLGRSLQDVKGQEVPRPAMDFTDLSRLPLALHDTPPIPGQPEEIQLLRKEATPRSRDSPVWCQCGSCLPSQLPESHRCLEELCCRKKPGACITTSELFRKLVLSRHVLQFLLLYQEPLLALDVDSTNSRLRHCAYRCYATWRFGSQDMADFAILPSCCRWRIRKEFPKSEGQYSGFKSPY

[2] = target: T2, P2X2 receptor (Homo sapiens, UniProt Q9UBL9); conditions: cited from earlier work
T2 sequence (Q9UBL9 1-471): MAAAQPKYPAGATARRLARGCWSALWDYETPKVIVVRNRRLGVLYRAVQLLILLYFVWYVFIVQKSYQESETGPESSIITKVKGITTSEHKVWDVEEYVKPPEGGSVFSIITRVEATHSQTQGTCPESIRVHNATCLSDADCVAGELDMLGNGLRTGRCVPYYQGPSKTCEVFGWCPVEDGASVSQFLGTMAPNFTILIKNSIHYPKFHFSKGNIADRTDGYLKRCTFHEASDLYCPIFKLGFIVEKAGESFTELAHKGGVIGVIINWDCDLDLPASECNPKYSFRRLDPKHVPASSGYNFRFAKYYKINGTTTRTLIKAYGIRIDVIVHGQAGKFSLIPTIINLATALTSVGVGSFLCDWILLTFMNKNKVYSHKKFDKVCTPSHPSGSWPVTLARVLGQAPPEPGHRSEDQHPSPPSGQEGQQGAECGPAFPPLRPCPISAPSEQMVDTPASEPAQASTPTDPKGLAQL

[3] = tested on: EV71; assay: Effects of other antagonists and agonists on EV71 (Table 9); assay type: cell-based, Enterovirus 71; design: key: “NO” indicates there is negative
[4] = target: T3, P2X1 receptor (Homo sapiens, UniProt P51575); conditions: cited from earlier work
T3 sequence (P51575 1-399): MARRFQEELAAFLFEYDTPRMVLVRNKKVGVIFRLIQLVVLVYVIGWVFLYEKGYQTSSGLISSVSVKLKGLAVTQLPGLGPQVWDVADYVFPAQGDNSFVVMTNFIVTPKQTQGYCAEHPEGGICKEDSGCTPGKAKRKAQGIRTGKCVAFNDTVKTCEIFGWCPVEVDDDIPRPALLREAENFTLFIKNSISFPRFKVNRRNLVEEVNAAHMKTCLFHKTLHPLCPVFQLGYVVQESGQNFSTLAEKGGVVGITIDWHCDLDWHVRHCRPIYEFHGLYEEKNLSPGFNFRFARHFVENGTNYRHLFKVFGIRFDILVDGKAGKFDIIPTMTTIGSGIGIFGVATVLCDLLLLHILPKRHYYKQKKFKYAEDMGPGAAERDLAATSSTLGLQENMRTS

[5] = target: T4, P2X3 receptor (Homo sapiens, UniProt P56373); conditions: cited from earlier work
T4 sequence (P56373 1-397): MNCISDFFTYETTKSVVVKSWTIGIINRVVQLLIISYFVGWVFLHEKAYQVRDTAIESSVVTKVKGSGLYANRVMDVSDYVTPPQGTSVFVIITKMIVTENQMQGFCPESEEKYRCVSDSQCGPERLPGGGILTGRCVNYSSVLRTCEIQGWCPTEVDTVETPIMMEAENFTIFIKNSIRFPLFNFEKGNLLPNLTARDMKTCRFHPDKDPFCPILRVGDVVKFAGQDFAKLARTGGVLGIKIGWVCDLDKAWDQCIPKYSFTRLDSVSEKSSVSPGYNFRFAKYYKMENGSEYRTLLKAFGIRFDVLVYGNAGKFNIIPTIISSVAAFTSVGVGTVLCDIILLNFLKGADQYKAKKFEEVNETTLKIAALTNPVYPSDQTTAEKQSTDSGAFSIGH

[6] = tested on: EV71; assay: Inhibition of EV71 replication in RD cells at 0.1, 1, 10 and 100 μM (CPE, crystal violet); assay type: cell-based, Enterovirus 71; conditions: for Inhibition of EV71 replication: Table 8, antagonists
Procedure: Inhibitory effect of each P2X receptor antagonists and agonists on EV71 replication was measured at 0.1, 1, 10, and 100 μM. Specific procedures refer to “1” of Example 1. after infection, however, cells need to be incubated for 3˜4 days, stained with crystal violet, and observed under optical microscope to determine whether or not CPE (cytopathic effect) was present. In addition, the effect of compounds at each concentration on cytotoxicity to RD cells was determined. After culturing RD cells in various concentrations of compounds for 3˜4 days, stained with crystal violet, and observed under optical microscope to observe whether or not cell layer was damaged. Compounds capable of protecting cells from infection without damage of healthy cell layer can inhibit EV71 replication in RD cells.

Compound	P2X receptors 7 ([1]; Table 9, antagonists)	EV71 Log10 reduction [3]	further results
CCOc1ccc(Nc2ccc(/C(=C3C=C/C(=[N+](/CC)Cc4cccc(S(=O)(=O)[O-])c4)C=C/3C)c3ccc(N(CC)Cc4cccc(S(=O)(=O)[O-])c4)cc3C)cc2)cc1.[Na+] [BBG]	✓ ✓ ✓ (✓ ✓ ✓ activating concentration <10 nM)	NO	P2X receptors 2 ([2]; Table 9, antagonists): ✓ (✓ activating concentration >300 nM); P2X receptors 1 ([4]; Table 9, antagonists): ✓ (✓ activating concentration >300 nM)
O=C1CN=C(c2cccc(Br)c2)c2oc3ccccc3c2N1 [5-BDBD]	–	NO	–
Nc1ncnc2c1ncn2[C@@H](C=O)O[C@@H](C=O)COP(=O)(O)OP(=O)(O)OP(=O)(O)O [oATP]	✓ ✓ (✓ ✓ activating concentration 10 nM-300 nM)	NO	–
COc1ccc(CC(=O)NC(N=C(NC#N)Nc2cccc3ncccc23)C(C)(C)C)cc1OC (stereo not drawn) [A 740003]	✓ ✓ (✓ ✓ activating concentration 10 nM-300 nM)	NO	–
CN([C@@H](Cc1ccc(OS(=O)(=O)c2cccc3cnccc23)cc1)C(=O)N1CCN(c2ccccc2)CC1)S(=O)(=O)c1cccc2cnccc12 [KN-62]	✓ ✓ (✓ ✓ activating concentration 10 nM-300 nM)	NO	–
Cc1ccc(CN2CCNCC2)cc1NC(=O)CNc1ccc(F)c(F)c1 [GW 791343]	–	NO	P2X receptors 7 ([1]; Table 9, modulator, no key printed for this class): ✓ ✓
O=C1CSC(=O)N1C(CCc1ccncc1)COc1ccc(-c2cccc([N+](=O)[O-])c2)cc1 (stereo not drawn) [AZ 11645373]	✓ ✓ (✓ ✓ activating concentration 10 nM-300 nM)	NO	–
Cc1nc(N=Nc2ccc(C(=O)O)cc2)c(COP(=O)(O)O)c(C=O)c1O [MRS 2159]	–	NO	P2X receptors 1 ([4]; Table 9, antagonists): ✓ ✓ (✓ ✓ activating concentration 10 nM-300 nM)
O=C(CC12CC3CC(CC(C3)C1)C2)Nc1cccc2nc(NCCNCCO)ccc12 [AZ 10606120]	–	NO	–
LVVYPWT [Spinorphin]	–	NO	P2X receptors 3 ([5]; Table 9, antagonists): ✓ ✓ ✓ (✓ ✓ ✓ activating concentration <10 nM)
COc1cc(C(C)C)c(Oc2cnc(N)nc2N)cc1I [AF353]	–	NO	–
O=C(N[C@H](Cc1cscn1)C(=O)N[C@@H](CC1CCCCC1)[C@@H](O)[C@@H](O)C1CC1)c1nc2ccccc2[nH]1 [Ro 0437626]	–	NO	P2X receptors 1 ([4]; Table 9, antagonists): ✓ (✓ activating concentration >300 nM)
O=C(O)c1cc(C(=O)O)c(C(=O)N(Cc2cccc(Oc3ccccc3)c2)[C@H]2CCCc3ccccc32)cc1C(=O)O [A-317491]	–	NO	–
Cc1nc(N=Nc2cc(S(=O)(=O)[O-])c3cc([N+](=O)[O-])cc(S(=O)(=O)[O-])c3c2)c(COP(=O)([O-])[O-])c(C=O)c1O.[Na+].[Na+].[Na+].[Na+] [PPNDS, Pyridoxal-5′-phosphate-6-(2′-naphthylazo-6′-nitro-4′,8′-disulfonate) tetrasodium salt]	–	–	P2X receptors 1 ([4]; Table 8, antagonists): ++ (++: inhibitory concentration = 10~300 nM); inhibition of EV71 replication (statement in words) [6]: can also inhibit EV71 replication; Inhibition of EV71 replication [6]: ++ (++: inhibitory concentration = 10~300 nM)
Clc1cccc(-c2nnnn2Cc2cccnc2)c1Cl [A 438079]	✓ ✓ (✓ ✓ activating concentration 10 nM-300 nM)	NO	–
O=C(Nc1cccc(C(=O)Nc2ccc(S(=O)(=O)O)c3cc(S(=O)(=O)O)cc(S(=O)(=O)O)c23)c1)Nc1cccc(C(=O)Nc2ccc(S(=O)(=O)O)c3cc(S(=O)(=O)O)cc(S(=O)(=O)O)c23)c1 [NF023, 8,8′-[carbonylbis(imino-3,1-phenylenecarbonylimino)]bis-1,3,5-naphthalene-trisulphonic acid, hexasodium salt]	–	–	P2X receptors 3 ([5]; Table 8, antagonists): + (+: inhibitory concentration >300 nM); P2X receptors 2 ([2]; Table 8, antagonists): + (+: inhibitory concentration >300 nM); P2X receptors 1 [4]: ++ (key: −: no activity; +: inhibitory concentration >300 nM; ++: inhibitory concentration = 10~300 nM; +++: inhibitory concentration <10 nM); inhibition of EV71 replication (statement in words) [6]: can also inhibit EV71 replication; Inhibition of EV71 replication [6]: + (+: inhibitory concentration >300 nM)
Clc1cccc(-n2nnnc2NCc2ccccc2Oc2ccccn2)c1Cl [A 839977]	✓ ✓ (✓ ✓ activating concentration 10 nM-300 nM)	NO	–
Nc1ncnc2c1ncn2[C@@H]1O[C@H](COP(=O)(O)O)C(O)C1OP(=O)(O)O (stereo partly drawn) [2′,5′-ADP]	–	NO	–
O=C(Nc1cccc(C(=O)Nc2cc(C(=O)Nc3ccc(S(=O)(=O)O)c4cc(S(=O)(=O)O)cc(S(=O)(=O)O)c34)ccc2F)c1)Nc1cccc(C(=O)Nc2cc(C(=O)Nc3ccc(S(=O)(=O)O)c4cc(S(=O)(=O)O)cc(S(=O)(=O)O)c34)ccc2F)c1 [NF157, 8,8′-[Carbonylbis[imino-3,1-phenylenecarbonylimino(4-fluoro-3,1-phenylene)carbonylimino]]]	–	–	inhibition of EV71 replication (statement in words) [6]: can also inhibit EV71 replication
Cc1cc(-c2ccc(N=Nc3ccc4c(S(=O)(=O)[O-])cc(S(=O)(=O)[O-])c(N)c4c3O)c(C)c2)ccc1N=Nc1ccc2c(S(=O)(=O)[O-])cc(S(=O)(=O)[O-])c(N)c2c1O.[Na+].[Na+].[Na+].[Na+] [Evans Blue]	–	–	inhibition of EV71 replication (statement in words) [6]: can also inhibit EV71 replication
Cc1nc(N=Nc2cc(S(=O)(=O)O)ccc2S(=O)(=O)O)c(COP(=O)(O)O)c(C=O)c1O [iso-PPADS, pyridoxal-phosphate-6-azophenyl-2′,5′-disulphonic acid]	–	–	P2X receptors 3 ([5]; Table 8, antagonists): ++ (++: inhibitory concentration = 10~300 nM); P2X receptors 2 ([2]; Table 8, antagonists): ++ (++: inhibitory concentration = 10~300 nM); P2X receptors 1 ([4]; Table 8, antagonists): ++ (++: inhibitory concentration = 10~300 nM); inhibition of EV71 replication (statement in words) [6]: can also inhibit EV71 replication; Inhibition of EV71 replication [6]: + (+: inhibitory concentration >300 nM)
O=C(Nc1cc(C(=O)Nc2ccc(S(=O)(=O)[O-])cc2)cc(C(=O)Nc2ccc(S(=O)(=O)[O-])cc2)c1)Nc1cc(C(=O)Nc2ccc(S(=O)(=O)[O-])cc2)cc(C(=O)Nc2ccc(S(=O)(=O)[O-])cc2)c1.[Na+].[Na+].[Na+].[Na+] [NF 110]	–	NO	P2X receptors 3 ([5]; Table 9, antagonists): ✓ ✓ (✓ ✓ activating concentration 10 nM-300 nM); P2X receptors 2 ([2]; Table 9, antagonists): ✓ (✓ activating concentration >300 nM); P2X receptors 1 ([4]; Table 9, antagonists): ✓ ✓ (✓ ✓ activating concentration 10 nM-300 nM)

Reference: US9872875B2, “Component and method for treating viral disease” (Institut Pasteur of Shanghai, Chinese Academy of Sciences, priority 2012, dated 2018)
